One experiment concerns the target T1, hNPR-A (Homo sapiens, UniProt P16066).
T1 sequence (P16066 33-1061): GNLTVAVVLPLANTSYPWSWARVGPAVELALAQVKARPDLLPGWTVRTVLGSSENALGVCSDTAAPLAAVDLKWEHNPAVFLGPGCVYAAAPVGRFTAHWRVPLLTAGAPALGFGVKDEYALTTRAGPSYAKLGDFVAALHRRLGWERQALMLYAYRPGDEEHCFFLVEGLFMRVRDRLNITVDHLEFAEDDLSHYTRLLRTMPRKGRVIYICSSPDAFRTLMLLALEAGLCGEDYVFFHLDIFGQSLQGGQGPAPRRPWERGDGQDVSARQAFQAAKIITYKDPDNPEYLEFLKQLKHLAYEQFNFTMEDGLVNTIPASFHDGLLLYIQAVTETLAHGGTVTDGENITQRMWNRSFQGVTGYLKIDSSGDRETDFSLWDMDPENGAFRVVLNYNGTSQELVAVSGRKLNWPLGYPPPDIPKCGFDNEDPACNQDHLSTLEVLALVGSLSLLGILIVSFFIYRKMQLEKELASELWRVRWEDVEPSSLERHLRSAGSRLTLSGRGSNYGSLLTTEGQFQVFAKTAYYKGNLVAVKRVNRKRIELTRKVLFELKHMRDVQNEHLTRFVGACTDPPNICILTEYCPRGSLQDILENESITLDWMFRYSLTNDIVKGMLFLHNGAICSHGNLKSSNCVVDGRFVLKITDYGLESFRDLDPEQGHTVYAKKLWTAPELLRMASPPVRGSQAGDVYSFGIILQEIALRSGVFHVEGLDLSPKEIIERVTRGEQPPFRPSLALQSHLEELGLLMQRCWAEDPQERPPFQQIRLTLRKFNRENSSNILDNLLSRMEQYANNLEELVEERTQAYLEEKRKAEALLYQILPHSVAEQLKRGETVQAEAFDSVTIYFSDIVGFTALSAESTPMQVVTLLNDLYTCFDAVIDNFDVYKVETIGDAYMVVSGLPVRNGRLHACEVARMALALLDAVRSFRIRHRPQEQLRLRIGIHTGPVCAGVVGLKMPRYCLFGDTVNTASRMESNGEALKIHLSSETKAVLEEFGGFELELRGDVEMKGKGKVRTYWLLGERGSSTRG
The experiment in a line: Binding affinity for hNPR-A (competitive displacement of I^125 labeled wild-type ANF). To be noted: Table I; read-out: Binding Affinity IC50 (pM) hNPR-A.

The target of the next experiment is T2, hNPR-C (Homo sapiens, UniProt P17342).
T2 sequence (P17342 27-541): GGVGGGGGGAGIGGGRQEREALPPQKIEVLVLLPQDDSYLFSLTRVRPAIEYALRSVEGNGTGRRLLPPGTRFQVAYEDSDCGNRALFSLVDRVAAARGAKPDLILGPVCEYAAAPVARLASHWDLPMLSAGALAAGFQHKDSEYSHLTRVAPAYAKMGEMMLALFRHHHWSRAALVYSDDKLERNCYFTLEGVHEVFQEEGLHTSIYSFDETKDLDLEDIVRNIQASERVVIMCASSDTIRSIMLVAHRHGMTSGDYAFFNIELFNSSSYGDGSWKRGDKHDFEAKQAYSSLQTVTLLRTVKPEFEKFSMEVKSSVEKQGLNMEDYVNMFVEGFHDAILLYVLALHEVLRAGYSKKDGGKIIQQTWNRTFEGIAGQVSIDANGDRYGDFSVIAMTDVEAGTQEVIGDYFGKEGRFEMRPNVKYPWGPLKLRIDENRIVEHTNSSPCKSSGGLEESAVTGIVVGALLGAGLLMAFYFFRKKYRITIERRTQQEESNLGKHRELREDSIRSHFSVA
Description: Binding affinity for clearance receptor hNPR-C. The conditions noted are these: Table I; read-out: Binding Affinity IC50 (pM) hNPR-C. The source says:
For assay systems to measure binding of hANF and the compounds of this invention to hNPR-C see: Schank, D. B., et al., Biochem. Biophys. Res. Comm. 127:433-442 (1985); Scarborough, R. M., J. Biol. Chem. 261:12960-12964 and WO 90/01940.

Bridge positions count the residues as written; N and C are the ends. Square brackets hold non-standard residues; d marks the D form. Peptide text beside a SMILES is read from it. Cha = N[C@@H](CC1CCCCC1)C(=O)O; Mpa = O=C(O)CCS

What is called IC50 is the concentration that gives 50% inhibition. Turning to `CC[C@H](C)[C@@H]1NC(=O)[C@H](CCCNC(=N)N)NC(=O)[C@H](CC(=O)O)NC(=O)[C@H]([C@@H](C)CC)NC(=O)[C@H](CO)NC(=O)CNC(=O)[C@H]([C@@H](C)O)NC(=O)[C@H](Cc2ccccc2)NC(=O)[C@@H](CO)NC(=O)[C@@H](NC(=O)[C@H](CO)NC(=O)[C@H](CO)NC(=O)[C@H](CCCNC(=N)N)NC(=O)[C@H](CCCNC(=N)N)NC(=O)[C@H](CC(C)C)NC(=O)[C@@H](N)CO)CSSC[C@@H](C(=O)N[C@@H](CC(N)=O)C(=O)N[C@@H](CO)C(=O)N[C@@H](Cc2ccccc2)C(=O)N[C@@H](CCCNC(=N)N)C(=O)N[C@@H](Cc2ccc(O)cc2)C(=O)O)NC(=O)CNC(=O)[C@H](CC(C)C)NC(=O)CNC(=O)[C@H](CO)NC(=O)[C@H](CCC(N)=O)NC(=O)[C@H](C)NC(=O)[C@H](CCCNC(=N)N)NC1=O` [ANF74] (H-SLRRSSC[dS]FTGSIDRIRAQSGLGCNSFRY-OH; disulfide 7-24), the IC50 was found to be 29400 pM on hNPR-A and 1e+07 pM at hNPR-C.
On to `CC[C@H](C)[C@@H]1NC(=O)[C@H](CCCNC(=N)N)NC(=O)[C@H](CC(=O)O)NC(=O)[C@H]([C@@H](C)CC)NC(=O)[C@H](CO)NC(=O)CNC(=O)[C@H]([C@@H](C)O)NC(=O)[C@H](Cc2ccccc2)NC(=O)[C@@H](C)NC(=O)[C@@H](NC(=O)[C@H](CO)NC(=O)[C@H](CO)NC(=O)[C@H](CCCNC(=N)N)NC(=O)[C@H](CCCNC(=N)N)NC(=O)[C@H](CC(C)C)NC(=O)[C@@H](N)CO)CSSC[C@@H](C(=O)N[C@@H](CC(N)=O)C(=O)N[C@@H](CO)C(=O)N[C@@H](Cc2ccccc2)C(=O)N[C@@H](CCCNC(=N)N)C(=O)N[C@@H](Cc2ccc(O)cc2)C(=O)O)NC(=O)CNC(=O)[C@H](CC(C)C)NC(=O)CNC(=O)[C@H](CO)NC(=O)[C@H](CCC(N)=O)NC(=O)[C@H](C)NC(=O)[C@H](CCCNC(=N)N)NC1=O` [ANF75] (H-SLRRSSC[dA]FTGSIDRIRAQSGLGCNSFRY-OH; disulfide 7-24), for which the IC50 came to 2080 pM on hNPR-A and 2e+06 pM on hNPR-C.
Take `CC[C@H](C)[C@@H]1NC(=O)[C@H](CCCNC(=N)N)NC(=O)[C@H](CC(=O)O)NC(=O)[C@H]([C@@H](C)CC)NC(=O)[C@H](CO)NC(=O)CNC(=O)[C@H]([C@@H](C)O)NC(=O)[C@H](CC2CCCCC2)NC(=O)[C@@H](NC(=O)[C@H](CO)NC(=O)[C@H](CO)NC(=O)[C@H](CCCNC(=N)N)NC(=O)[C@H](CCCNC(=N)N)NC(=O)[C@H](CC(C)C)NC(=O)[C@@H](N)CO)CSSC[C@@H](C(=O)N[C@@H](CC(N)=O)C(=O)N[C@@H](CO)C(=O)N[C@@H](Cc2ccccc2)C(=O)N[C@@H](CCCNC(=N)N)C(=O)N[C@@H](Cc2ccc(O)cc2)C(=O)O)NC(=O)CNC(=O)[C@H](CC(C)C)NC(=O)CNC(=O)[C@H](CO)NC(=O)[C@H](CCC(N)=O)NC(=O)[C@H](C)NC(=O)[C@H](CCCNC(=N)N)NC1=O` [ANF79] (H-SLRRSSC[Cha]TGSIDRIRAQSGLGCNSFRY-OH; disulfide 7-23): the 50% inhibitory concentration (IC50) on hNPR-A came to 2.4 pM; at hNPR-C, 1.48e+06 pM.
Taken in the same sequence, the figures for `CC[C@H](C)[C@@H]1NC(=O)[C@H](CCCNC(=N)N)NC(=O)[C@H](CC(=O)O)NC(=O)[C@H]([C@@H](C)CC)NC(=O)[C@H](CO)NC(=O)CNC(=O)[C@@H]([C@H](C)O)NC(=O)[C@H](Cc2ccccc2)NC(=O)CCSSC[C@@H](C(=O)N[C@@H](CC(N)=O)C(=O)N[C@@H](CO)C(=O)N[C@@H](Cc2ccccc2)C(=O)N[C@@H](CCCNC(=N)N)C(=O)N[C@@H](Cc2ccc(O)cc2)C(=O)O)NC(=O)CNC(=O)[C@H](CC(C)C)NC(=O)CNC(=O)[C@H](CO)NC(=O)[C@H](CCC(N)=O)NC(=O)[C@H](C)NC(=O)[C@H](CCCNC(=N)N)NC1=O` [ANF80] ([Mpa]F[dT]GSIDRIRAQSGLGCNSFRY-OH; disulfide 1-17) were 423 pM and 739000 pM.
Turning to `CC[C@H](C)[C@@H]1NC(=O)[C@H](CCCNC(=N)N)NC(=O)[C@H](CC(=O)O)NC(=O)[C@H]([C@@H](C)CC)NC(=O)[C@H](CO)NC(=O)CNC(=O)[C@@H](C)NC(=O)[C@H](Cc2ccccc2)NC(=O)CCSSC[C@@H](C(=O)N[C@@H](CC(N)=O)C(=O)N[C@@H](CO)C(=O)N[C@@H](Cc2ccccc2)C(=O)N[C@@H](CCCNC(=N)N)C(=O)N[C@@H](Cc2ccc(O)cc2)C(=O)O)NC(=O)CNC(=O)[C@H](CC(C)C)NC(=O)CNC(=O)[C@H](CO)NC(=O)[C@H](CCC(N)=O)NC(=O)[C@H](C)NC(=O)[C@H](CCCNC(=N)N)NC1=O` [ANF81] ([Mpa]F[dA]GSIDRIRAQSGLGCNSFRY-OH; disulfide 1-17), the IC50 was found to be 1400 pM on hNPR-A and 3.86e+06 pM at hNPR-C.
With `CC[C@H](C)[C@@H]1NC(=O)[C@H](CCCNC(=N)N)NC(=O)[C@H](CC(=O)O)NC(=O)[C@H]([C@@H](C)CC)NC(=O)[C@H](CO)NC(=O)CNC(=O)[C@H]([C@@H](C)O)NC(=O)[C@H](Cc2ccccc2)N(C)C(=O)[C@@H](NC(=O)[C@H](CO)NC(=O)[C@H](CO)NC(=O)[C@H](CCCNC(=N)N)NC(=O)[C@H](CCCNC(=N)N)NC(=O)[C@H](CC(C)C)NC(=O)[C@@H](N)CO)CSSC[C@@H](C(=O)N[C@@H](CC(N)=O)C(=O)N[C@@H](CO)C(=O)N[C@@H](Cc2ccccc2)C(=O)N[C@@H](CCCNC(=N)N)C(=O)N[C@@H](Cc2ccc(O)cc2)C(=O)O)NC(=O)CNC(=O)[C@H](CC(C)C)NC(=O)CNC(=O)[C@H](CO)NC(=O)[C@H](CCC(N)=O)NC(=O)[C@H](C)NC(=O)[C@H](CCCNC(=N)N)NC1=O` [ANF83], the values for the IC50 on hNPR-A and on hNPR-C were 16 pM and 3.44e+06 pM, respectively.
With `CC[C@H](C)[C@@H]1NC(=O)[C@H](CCCNC(=N)N)NC(=O)[C@H](CC(=O)O)NC(=O)[C@H]([C@@H](C)CC)NC(=O)[C@H](CO)NC(=O)CNC(=O)[C@H]([C@@H](C)O)NC(=O)[C@H](Cc2ccccc2)NC[C@@H](NC(=O)[C@H](CO)NC(=O)[C@H](CO)NC(=O)[C@H](CCCNC(=N)N)NC(=O)[C@H](CCCNC(=N)N)NC(=O)[C@H](CC(C)C)NC(=O)[C@@H](N)CO)CSSC[C@@H](C(=O)N[C@@H](CC(N)=O)C(=O)N[C@@H](CO)C(=O)N[C@@H](Cc2ccccc2)C(=O)N[C@@H](CCCNC(=N)N)C(=O)N[C@@H](Cc2ccc(O)cc2)C(=O)O)NC(=O)CNC(=O)[C@H](CC(C)C)NC(=O)CNC(=O)[C@H](CO)NC(=O)[C@H](CCC(N)=O)NC(=O)[C@H](C)NC(=O)[C@H](CCCNC(=N)N)NC1=O` [ANF84], the 50% inhibitory concentration (IC50) turned out to be 21 pM at hNPR-A and 1.9e+07 pM on hNPR-C.
On to `CC[C@H](C)[C@@H]1NC(=O)[C@H](CCCNC(=N)N)NC(=O)[C@H](CC(=O)O)NC(=O)[C@H]([C@@H](C)CC)NC(=O)[C@H](CC(=O)O)NC(=O)CNC(=O)[C@@H](C)NC(=O)[C@H](Cc2ccccc2)NC(=O)[C@@H](NC(=O)[C@H](CO)NC(=O)[C@H](CO)NC(=O)[C@H](CCCNC(=N)N)NC(=O)[C@H](CCCNC(=N)N)NC(=O)[C@H](CC(C)C)NC(=O)[C@@H](N)CO)CSSC[C@@H](C(=O)N[C@@H](CC(N)=O)C(=O)N[C@@H](CO)C(=O)N[C@@H](Cc2ccccc2)C(=O)N[C@@H](CCCNC(=N)N)C(=O)N[C@@H](Cc2ccc(O)cc2)C(=O)O)NC(=O)CNC(=O)[C@H](CC(C)C)NC(=O)CNC(=O)[C@H](CO)NC(=O)[C@H](CCC(N)=O)NC(=O)[C@H](C)NC(=O)[C@H](CCCNC(=N)N)NC1=O` [ANF90] (H-SLRRSSCF[dA]GDIDRIRAQSGLGCNSFRY-OH; disulfide 7-23), for which the IC50 on hNPR-A came out at 1200 pM; on hNPR-C it was 6.14e+06 pM.
